Consider seven molecules from patent publication US20150344540A1, “NOVEL GLP-1 RECEPTOR AGONISTS WITH CHOLESTEROL EFFLUX ACTIVITY” (NOVO NORDISK A/S, priority 2012, published 2015).

Broadly, the EC50 is the concentration giving half of the maximal effect.

Read-outs that look alike come from different tables or passages of the source. Where a SMILES comes first, the peptide text is derived from it. [ ]: non-standard residue; d: D form. Aib = CC(C)(N)C(=O)O

Assay [1] has as its system Mouse monocyte/macrophage cell line, RAW 264.7. In words: Cholesterol efflux assay (3H-cholesterol, macrophage cell line). The format is cell-based. Conditions: RAW 264.7, 4 hrs incubation, 0.1% human serum albumin, ABCA1-mediated efflux.
The next assay deals with human GLP-1 receptor (Homo sapiens, UniProt P43220). The experiment in a line: Functional GLP-1 receptor assay, in vitro potency (CRE luciferase; whole cells). Conditions: BHK cells expressing human GLP-1 receptor. The format is cell-based.
human GLP-1 receptor, sequence (P43220 24-463): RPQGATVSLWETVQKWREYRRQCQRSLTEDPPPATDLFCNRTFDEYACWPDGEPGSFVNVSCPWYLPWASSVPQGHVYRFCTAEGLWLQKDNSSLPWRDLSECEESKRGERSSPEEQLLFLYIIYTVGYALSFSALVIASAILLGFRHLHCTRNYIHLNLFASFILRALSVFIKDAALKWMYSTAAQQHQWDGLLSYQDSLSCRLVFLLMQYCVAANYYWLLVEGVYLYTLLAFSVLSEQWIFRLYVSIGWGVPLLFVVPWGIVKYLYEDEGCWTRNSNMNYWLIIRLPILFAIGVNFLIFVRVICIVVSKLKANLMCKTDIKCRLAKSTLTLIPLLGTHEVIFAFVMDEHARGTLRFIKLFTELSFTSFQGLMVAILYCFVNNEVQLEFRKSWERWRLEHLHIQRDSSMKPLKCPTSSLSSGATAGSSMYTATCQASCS
Setting [2] is: GLP1R CRE luc 1% HSA EC50 Mean Value, 1% HSA.
Setting [3] is: 0% HSA, read-out: GLP1R CRE luc 0% HSA EC50 Mean Value.

For the molecule `CC[C@H](C)[C@H](NC(=O)[C@H](Cc1ccccc1)NC(=O)[C@H](CC(C)C)NC(=O)[C@H](CCCCN)NC(=O)[C@@H](NC(=O)[C@H](C)NC(=O)[C@H](CCC(=O)O)NC(=O)CNC(=O)[C@H](CCC(=O)O)NC(=O)[C@H](CC(C)C)NC(=O)[C@H](Cc1ccc(O)cc1)NC(=O)[C@H](CO)NC(=O)[C@H](CO)NC(=O)[C@@H](NC(=O)[C@H](CC(=O)O)NC(=O)[C@H](CO)NC(=O)[C@@H](NC(=O)[C@H](Cc1ccccc1)NC(=O)[C@@H](NC(=O)CNC(=O)[C@H](CCC(=O)O)NC(=O)C(C)(C)NC(=O)[C@@H](N)Cc1c[nH]cn1)[C@@H](C)O)[C@@H](C)O)C(C)C)C(C)C)C(=O)N[C@@H](C)C(=O)N[C@@H](Cc1c[nH]c2ccccc12)C(=O)N[C@@H](CC(C)C)C(=O)N[C@H](C(=O)N[C@@H](CCC(=O)O)C(=O)N[C@@H](CCCCN)C(=O)NC(C)(C)C(=O)N[C@@H](CCCCN)C(=O)N[C@@H](CCC(=O)O)C(=O)N[C@@H](Cc1ccccc1)C(=O)N[C@@H](CC(C)C)C(N)=O)C(C)C` [Compound 28, [Aib8,Glu23,Val25,Leu27,Glu34,Lys35,Aib36,Lys37]-GLP-1-(7-37)-peptidyl-Glu-Phe-Leu amide] (H-H[Aib]EGTFTSDVSSYLEGEAVKLFIAWLVEK[Aib]KEFL-NH2), the “4 h Cholesterol Efflux Emax” value in assay [1] is given as 78%. On human GLP-1 receptor (setting [2]), this molecule yielded an EC50 of 0.104 nM.

On to `CC[C@H](C)[C@H](NC(=O)[C@H](Cc1ccccc1)NC(=O)[C@H](CCC(=O)O)NC(=O)[C@H](CCCCN)NC(=O)[C@@H](NC(=O)[C@H](C)NC(=O)[C@H](CCC(=O)O)NC(=O)CNC(=O)[C@H](CCC(=O)O)NC(=O)[C@H](CC(C)C)NC(=O)[C@H](Cc1ccc(O)cc1)NC(=O)[C@H](CO)NC(=O)[C@H](CO)NC(=O)[C@@H](NC(=O)[C@H](CC(=O)O)NC(=O)[C@H](CO)NC(=O)[C@@H](NC(=O)[C@H](Cc1ccccc1)NC(=O)[C@@H](NC(=O)CNC(=O)[C@H](CCC(=O)O)NC(=O)C(C)(C)NC(=O)[C@@H](N)Cc1c[nH]cn1)[C@@H](C)O)[C@@H](C)O)C(C)C)C(C)C)C(=O)N[C@@H](C)C(=O)N[C@@H](Cc1c[nH]c2ccccc12)C(=O)N[C@@H](CC(C)C)C(=O)N[C@H](C(=O)N[C@@H](CCC(=O)O)C(=O)NCC(=O)NC(C)(C)C(=O)N[C@@H](CCCCN)C(=O)N[C@@H](CCC(=O)O)C(=O)N[C@@H](Cc1ccccc1)C(=O)N[C@@H](CC(C)C)C(N)=O)C(C)C` [Compound 30, [Aib8,Glu23,Val25,Glu34,Aib36,Lys37]-GLP-1-(7-37)-peptidyl-Glu-Phe-Leu amide] (H-H[Aib]EGTFTSDVSSYLEGEAVKEFIAWLVEG[Aib]KEFL-NH2), for which the “4 h Cholesterol Efflux Emax” value in assay [1] stood at 75%. The EC50 came to 0.034 nM on human GLP-1 receptor (setting [3]) and 0.013 nM on human GLP-1 receptor (setting [2]).

Take `CC[C@H](C)[C@H](NC(=O)[C@H](Cc1ccccc1)NC(=O)[C@H](CCC(=O)O)NC(=O)[C@H](CCCCN)NC(=O)[C@@H](NC(=O)[C@H](C)NC(=O)[C@H](CCC(=O)O)NC(=O)CNC(=O)[C@H](CCC(=O)O)NC(=O)[C@H](CC(C)C)NC(=O)[C@H](Cc1ccc(O)cc1)NC(=O)[C@H](CO)NC(=O)[C@H](CO)NC(=O)[C@@H](NC(=O)[C@H](CC(=O)O)NC(=O)[C@H](CO)NC(=O)[C@@H](NC(=O)[C@H](Cc1ccccc1)NC(=O)[C@@H](NC(=O)CNC(=O)[C@H](CCC(=O)O)NC(=O)C(C)(C)NC(=O)[C@@H](N)Cc1c[nH]cn1)[C@@H](C)O)[C@@H](C)O)C(C)C)C(C)C)C(=O)N[C@@H](C)C(=O)N[C@@H](Cc1c[nH]c2ccccc12)C(=O)N[C@@H](CC(C)C)C(=O)N[C@H](C(=O)N[C@@H](CCC(=O)O)C(=O)N[C@@H](CCCCN)C(=O)NC(C)(C)C(=O)N[C@@H](CCCCN)C(=O)N[C@@H](Cc1c[nH]cn1)C(=O)N[C@@H](Cc1ccccc1)C(=O)N[C@@H](CC(C)C)C(N)=O)C(C)C` [Compound 31, [Aib8,Glu23,Val25,Glu34,Lys35,Aib36,Lys37]-GLP-1-(7-37)-peptidyl-His-Phe-Leu amide] (H-H[Aib]EGTFTSDVSSYLEGEAVKEFIAWLVEK[Aib]KHFL-NH2): the “4 h Cholesterol Efflux Emax” value in assay [1] came to 84%. This molecule also registered a half-maximal effective concentration (EC50) at human GLP-1 receptor (setting [2]) of 0.062 nM.

`CC[C@H](C)[C@H](NC(=O)[C@H](Cc1ccccc1)NC(=O)[C@H](CCC(=O)O)NC(=O)[C@H](CCCNC(=N)N)NC(=O)[C@@H](NC(=O)[C@H](C)NC(=O)[C@H](CCC(=O)O)NC(=O)[C@H](CCC(=O)O)NC(=O)[C@H](CCC(=O)O)NC(=O)[C@H](CCSC)NC(=O)[C@H](CCC(N)=O)NC(=O)[C@H](CCCCN)NC(=O)[C@H](CO)NC(=O)[C@H](CC(C)C)NC(=O)[C@H](CC(=O)O)NC(=O)[C@H](CO)NC(=O)[C@@H](NC(=O)[C@H](Cc1ccccc1)NC(=O)[C@@H](NC(=O)CNC(=O)[C@H](CCC(=O)O)NC(=O)C(C)(C)NC(=O)[C@@H](N)Cc1c[nH]cn1)[C@@H](C)O)[C@@H](C)O)C(C)C)C(=O)N[C@@H](CCC(=O)O)C(=O)N[C@@H](Cc1c[nH]c2ccccc12)C(=O)N[C@@H](CC(C)C)C(=O)N[C@@H](CCCCN)C(=O)N[C@@H](CC(N)=O)C(=O)NCC(=O)NC(C)(C)C(=O)N[C@@H](CC(C)C)C(=O)N[C@@H](CCC(=O)O)C(=O)N[C@@H](Cc1ccccc1)C(=O)N[C@@H](CC(C)C)C(=O)N[C@@H](CCC(=O)O)C(=O)N[C@@H](CC(C)C)C(=O)N[C@@H](CC(C)C)C(N)=O` [Compound 34, [Aib2,Glu21,Aib30,Leu31,Glu32,Phe33,Leu34,Glu35,Leu36,Leu371-Exendin-4-(1-37)-peptide amide] (H-H[Aib]EGTFTSDLSKQMEEEAVREFIEWLKNG[Aib]LEFLELL-NH2; N-terminus assumed): the “4 h Cholesterol Efflux Emax” value in assay [1] is listed as 94%. The response at human GLP-1 receptor (setting [2]) was half-maximal at 0.032 nM (EC50).

As for `CC[C@H](C)[C@H](NC(=O)[C@H](Cc1ccccc1)NC(=O)[C@H](CCC(=O)O)NC(=O)[C@H](CCCNC(=N)N)NC(=O)[C@@H](NC(=O)[C@H](C)NC(=O)[C@H](CCC(=O)O)NC(=O)[C@H](CCC(=O)O)NC(=O)[C@H](CCC(=O)O)NC(=O)[C@H](CCSC)NC(=O)[C@H](CCC(N)=O)NC(=O)[C@H](CCCCN)NC(=O)[C@H](CO)NC(=O)[C@H](CC(C)C)NC(=O)[C@H](CC(=O)O)NC(=O)[C@H](CO)NC(=O)[C@@H](NC(=O)[C@H](Cc1ccccc1)NC(=O)[C@@H](NC(=O)CNC(=O)[C@H](CCC(=O)O)NC(=O)C(C)(C)NC(=O)[C@@H](N)Cc1c[nH]cn1)[C@@H](C)O)[C@@H](C)O)C(C)C)C(=O)N[C@@H](CCC(=O)O)C(=O)N[C@@H](Cc1c[nH]c2ccccc12)C(=O)N[C@@H](CC(C)C)C(=O)N[C@@H](CCCCN)C(=O)N[C@@H](CC(N)=O)C(=O)N[C@@H](CCCCN)C(=O)NC(C)(C)C(=O)N1CCC[C@H]1C(=O)N[C@@H](CCC(=O)O)C(=O)N[C@@H](Cc1ccccc1)C(=O)N[C@@H](CC(C)C)C(=O)N[C@@H](CCC(=O)O)C(=O)N[C@@H](CC(C)C)C(=O)N[C@@H](CC(C)C)C(N)=O` [Compound 35, [Aib2,Glu21,Lys29,Aib30,Glu32,Phe33,Leu34,Glu35,Leu36,Leu371-Exendin-4-(1-37)-peptide amide] (H-H[Aib]EGTFTSDLSKQMEEEAVREFIEWLKNK[Aib]PEFLELL-NH2; N-terminus assumed), the “4 h Cholesterol Efflux Emax” value in assay [1] is on record as 48%. This molecule returned an EC50 at human GLP-1 receptor (setting [2]) of 0.032 nM.

With `CC[C@H](C)[C@H](NC(=O)[C@H](Cc1ccccc1)NC(=O)[C@H](CCC(=O)O)NC(=O)[C@H](CCCNC(=N)N)NC(=O)[C@@H](NC(=O)[C@H](C)NC(=O)[C@H](CCC(=O)O)NC(=O)[C@H](CCC(=O)O)NC(=O)[C@H](CCC(=O)O)NC(=O)[C@H](CCSC)NC(=O)[C@H](CCC(N)=O)NC(=O)[C@H](CCCCN)NC(=O)[C@H](CO)NC(=O)[C@H](CC(C)C)NC(=O)[C@H](CC(=O)O)NC(=O)[C@H](CO)NC(=O)[C@@H](NC(=O)[C@H](Cc1ccccc1)NC(=O)[C@@H](NC(=O)CNC(=O)[C@H](CCC(=O)O)NC(=O)C(C)(C)NC(=O)[C@@H](N)Cc1c[nH]cn1)[C@@H](C)O)[C@@H](C)O)C(C)C)C(=O)N[C@@H](CCC(=O)O)C(=O)N[C@@H](Cc1c[nH]c2ccccc12)C(=O)N[C@@H](CC(C)C)C(=O)N[C@@H](CCCCN)C(=O)N[C@@H](CC(N)=O)C(=O)N[C@@H](CCCCN)C(=O)NC(C)(C)C(=O)N[C@@H](CC(C)C)C(=O)N[C@@H](CCC(=O)O)C(=O)N[C@@H](CO)C(=O)N[C@@H](CC(C)C)C(=O)N[C@@H](CCC(=O)O)C(=O)N[C@@H](CC(C)C)C(=O)N[C@@H](CC(C)C)C(N)=O` [Compound 37, [Aib2,Glu21,Lys29,Aib30,Leu31,Glu32,Leu34,Glu35,Leu36,Leu371-Exendin-4-(1-37)-peptide amide] (H-H[Aib]EGTFTSDLSKQMEEEAVREFIEWLKNK[Aib]LESLELL-NH2; N-terminus assumed), the “4 h Cholesterol Efflux Emax” value in assay [1] is on record as 102%. For the same molecule, the EC50 came out at 0.023 nM at human GLP-1 receptor (setting [3]) and 0.011 nM on human GLP-1 receptor (setting [2]).

Regarding `CC[C@H](C)[C@H](NC(=O)[C@H](Cc1ccccc1)NC(=O)[C@H](CCC(=O)O)NC(=O)[C@H](CCCNC(=N)N)NC(=O)[C@@H](NC(=O)[C@H](C)NC(=O)[C@H](CCC(=O)O)NC(=O)[C@H](CCC(=O)O)NC(=O)[C@H](CCC(=O)O)NC(=O)[C@H](CCSC)NC(=O)[C@H](CCC(N)=O)NC(=O)[C@H](CCCCN)NC(=O)[C@H](CO)NC(=O)[C@H](CC(C)C)NC(=O)[C@H](CC(=O)O)NC(=O)[C@H](CO)NC(=O)[C@@H](NC(=O)[C@H](Cc1ccccc1)NC(=O)[C@@H](NC(=O)CNC(=O)[C@H](CCC(=O)O)NC(=O)C(C)(C)NC(=O)[C@@H](N)Cc1c[nH]cn1)[C@@H](C)O)[C@@H](C)O)C(C)C)C(=O)N[C@@H](CCC(=O)O)C(=O)N[C@@H](Cc1c[nH]c2ccccc12)C(=O)N[C@@H](CC(C)C)C(=O)N[C@@H](CCCCN)C(=O)N[C@@H](CC(N)=O)C(=O)N[C@@H](CCCCN)C(=O)NC(C)(C)C(=O)N[C@@H](CC(C)C)C(=O)N[C@@H](CCC(=O)O)C(=O)N[C@@H](Cc1ccccc1)C(=O)NCC(=O)N[C@@H](CCC(=O)O)C(=O)N[C@@H](CC(C)C)C(=O)N[C@@H](CC(C)C)C(N)=O` [Compound 38, [Aib2,Glu21,Lys29,Aib30,Leu31,Glu32,Phe33,Glu35,Leu36,Leu371-Exendin-4-(1-37)-peptide amide] (H-H[Aib]EGTFTSDLSKQMEEEAVREFIEWLKNK[Aib]LEFGELL-NH2; N-terminus assumed), the “4 h Cholesterol Efflux Emax” value in assay [1] was determined as 82%. At human GLP-1 receptor (setting [2]), this molecule showed a 50% effective concentration (EC50) of 0.012 nM.
